Test results as given in ChEMBL document CHEMBL1150016, “Quinuclidine based NK-1 antagonists 2: determination of the absolute stereochemical requirements” (Bioorg Med Chem Lett, 1993).

Molecular target: Substance-P receptor (Homo sapiens, UniProt P25103)
Assay: Tested for binding affinity by measuring displacement of [125I]SP from human NK-1 receptor in CHO Cells

Chain of Substance-P receptor (P25103 whole entry): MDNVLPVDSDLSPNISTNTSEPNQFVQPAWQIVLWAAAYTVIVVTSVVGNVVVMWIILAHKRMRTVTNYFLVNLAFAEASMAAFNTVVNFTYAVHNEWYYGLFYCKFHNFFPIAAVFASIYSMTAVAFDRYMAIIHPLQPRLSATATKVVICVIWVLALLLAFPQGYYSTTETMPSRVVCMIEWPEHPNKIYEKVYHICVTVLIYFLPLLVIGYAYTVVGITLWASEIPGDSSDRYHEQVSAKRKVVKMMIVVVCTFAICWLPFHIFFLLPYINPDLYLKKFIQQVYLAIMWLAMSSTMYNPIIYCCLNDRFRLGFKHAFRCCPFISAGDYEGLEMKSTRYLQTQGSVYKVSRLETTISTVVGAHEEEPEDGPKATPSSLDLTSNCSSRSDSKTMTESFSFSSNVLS

SMILES	IC50 [nM]
FC(F)(F)c1cc(CO[C@@H]2C3CCN(CC3)[C@H]2C(c2ccccc2)c2ccccc2)cc(C(F)(F)F)c1	270
FC(F)(F)c1cc(CO[C@H]2C3CCN(CC3)[C@@H]2C(c2ccccc2)c2ccccc2)cc(C(F)(F)F)c1	0.7
FC(F)(F)c1cc(CO[C@H]2C3CCN(CC3)[C@H]2C(c2ccccc2)c2ccccc2)cc(C(F)(F)F)c1 [L-709210]	1.3
FC(F)(F)c1cc(CO[C@@H]2C3CCN(CC3)[C@@H]2C(c2ccccc2)c2ccccc2)cc(C(F)(F)F)c1	570
